Results as given in ChEMBL document CHEMBL1126408, “CP-70,030 and CP-75,998: The first non-peptide antagonists of bombesin and gastrin releasing peptide” (Bioorg Med Chem Lett, 1992).
Activity calls are given as the source filed them. No cut-off for these calls is given here.

Experiments:
Rattus norvegicus [1] = species on record: Rattus norvegicus; test: Antagonistic activity as a measure of bombesin-induced phosphoinositide turnover in rat pituitary GH3 cells; 1.5-3 uM; format: functional, cell-based
Rattus norvegicus [2] = species on record: Rattus norvegicus; test: Agonistic activity up to a conc 30 uM measured as elevation of inositol phosphate production in absence of bombesin in rat pituitary GH3 cells; NA is no measurable agonist activity; format: functional, cell-based
[3] = target: Gastrin-releasing peptide receptor (Homo sapiens) (UniProt P30550); test: Compound up to a conc of 32 uM was tested for displacement of radiolabeled GRP from its receptors on bombesin-responsive human SCLC cell line N592; […]
[4] = target: Gastrin-releasing peptide receptor (Rattus norvegicus, UniProt P52500); test: Compound was evaluated for displacement of radiolabeled [I-125]GRP from rat brain receptor; 1.5-3 uM
Sequence of Gastrin-releasing peptide receptor (P52500 whole entry): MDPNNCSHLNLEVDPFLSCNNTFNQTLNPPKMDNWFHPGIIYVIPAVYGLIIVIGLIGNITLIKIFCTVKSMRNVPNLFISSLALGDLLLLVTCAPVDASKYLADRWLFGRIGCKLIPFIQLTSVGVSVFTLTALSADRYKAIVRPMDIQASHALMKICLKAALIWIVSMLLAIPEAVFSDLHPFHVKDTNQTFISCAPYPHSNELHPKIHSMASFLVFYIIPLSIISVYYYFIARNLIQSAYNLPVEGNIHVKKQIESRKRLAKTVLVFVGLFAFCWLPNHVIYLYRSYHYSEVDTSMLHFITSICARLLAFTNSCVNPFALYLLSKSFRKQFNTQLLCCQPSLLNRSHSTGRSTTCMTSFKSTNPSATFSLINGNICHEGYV

Sequence of Gastrin-releasing peptide receptor (Homo sapiens) (P30550 whole entry, looked up): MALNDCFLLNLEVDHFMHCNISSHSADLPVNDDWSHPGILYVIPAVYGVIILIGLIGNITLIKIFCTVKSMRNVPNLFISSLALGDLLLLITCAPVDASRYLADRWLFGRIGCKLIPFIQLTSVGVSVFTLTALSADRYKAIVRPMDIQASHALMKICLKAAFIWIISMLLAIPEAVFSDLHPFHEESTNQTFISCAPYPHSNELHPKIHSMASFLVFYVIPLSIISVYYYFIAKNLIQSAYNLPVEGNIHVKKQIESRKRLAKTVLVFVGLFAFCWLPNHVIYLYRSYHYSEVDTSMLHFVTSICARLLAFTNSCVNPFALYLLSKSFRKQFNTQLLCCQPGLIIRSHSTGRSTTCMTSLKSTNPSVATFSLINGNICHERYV

IC50 (Rattus norvegicus [1]) [nM] | Activity [3] | IC50 [4] [nM] | Structure (SMILES) | Activity (Rattus norvegicus [2])
1500 | inactive | 1500 | CCN1C(=O)/C(=C/c2cc(C(C)(C)C)c(O)c(C(C)(C)C)c2)c2cc(OCc3ccccc3C(=O)O)ccc21 | inactive
1500 | inactive | 1500 | O=C1NC(=O)C2(N1)C(=O)N(Cc1ccc(Cl)c(Cl)c1)c1ncc(Br)cc12 (stereo not drawn) | inactive
